Results reported in ChEMBL document CHEMBL1201862, “PubChem BioAssay data set” (2004).
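Method: 48-hour compound exposure of cells in 96-well plates, five concentrations, linear interpolation of endpoints. GI50: concentration for 50% inhibition of growth.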 Calls of active or inactive are those of the source. Cut-off read from the data, not from the text of the source: active = GI50 up to about 1.1 µM and inactive = higher.

Experiments:
Assay in all cases: NCI tumour cell line growth inhibition, 48 h
ACHN = system: ACHN
CAKI-1 = system: CAKI-1
CCRF-CEM = system: CCRF-CEM
COLO 205 = system: COLO 205
HT-29 = system: HT-29
K562 = system: K562
MCF7 = system: MCF7
MOLT-4 = system: MOLT-4
OVCAR-4 = system: OVCAR-4
OVCAR-5 = system: OVCAR-5
RPMI-8226 = system: RPMI-8226
SF-268 = system: SF-268
SF-295 = system: SF-295
SNB-19 = system: SNB-19
U-251 = system: U-251
UO-31 = system: UO-31
MDA-MB-231 = system: MDA-MB-231
MDA-N = system: MDA-N
SR = system: SR
PC-3 = system: PC-3

Row | Compound | GI50 (ACHN) | GI50 (CAKI-1) | GI50 (CCRF-CEM) | GI50 (COLO 205) | GI50 (HT-29) | GI50 (K562) | GI50 (MCF7) | GI50 (MOLT-4) | GI50 (OVCAR-4) | GI50 (OVCAR-5) | GI50 (RPMI-8226) | GI50 (SF-268) | GI50 (SF-295) | GI50 (SNB-19) | GI50 (U-251) | GI50 (UO-31) | GI50 (MDA-MB-231) | GI50 (MDA-N) | GI50 (SR) | GI50 (PC-3)
1 | C=CC1(C)CC(=O)C2(O)C(C)(O1)C(OC(C)=O)C(O)C1C(C)(C)CCC(O)C12C (stereo not given) | > 100 µM (inactive) | 1.37 µM (inactive) | 22.2 µM (inactive) | 104 µM (inactive) | 49.8 µM (inactive) | > 150 µM (inactive) | 81.7 µM (inactive) | 28.6 µM (inactive) | > 54.8 µM (inactive) | 4.84 µM (inactive) | 27.1 µM (inactive) | > 128 µM (inactive) | > 142 µM (inactive) | > 150 µM (inactive) | 71 µM (inactive) | 30.5 µM (inactive) | – | – | – | –
2 | C=CO/N=[N+](\[O-])N(CC)CC | > 100 µM (inactive) | > 100 µM (inactive) | > 100 µM (inactive) | > 100 µM (inactive) | > 100 µM (inactive) | > 100 µM (inactive) | > 100 µM (inactive) | > 100 µM (inactive) | > 100 µM (inactive) | > 100 µM (inactive) | > 100 µM (inactive) | > 100 µM (inactive) | > 100 µM (inactive) | > 100 µM (inactive) | > 100 µM (inactive) | – | > 100 µM (inactive) | > 100 µM (inactive) | > 100 µM (inactive) | –
3 | C=C(C)[C@H]1CC[C@@]2(C)C(C1)[C@H](C)CC[C@@H]2O (stereo not given in full) | > 100 µM (inactive) | > 100 µM (inactive) | > 100 µM (inactive) | > 100 µM (inactive) | 70.5 µM (inactive) | > 100 µM (inactive) | – | 88.3 µM (inactive) | > 100 µM (inactive) | > 100 µM (inactive) | > 100 µM (inactive) | > 100 µM (inactive) | > 100 µM (inactive) | > 100 µM (inactive) | > 100 µM (inactive) | > 100 µM (inactive) | – | – | > 100 µM (inactive) | –
4 | N#CC(C#N)=Cc1ccc2c(c1)OC(Cl)O2 (stereo not given) | 19.9 µM (inactive) | > 100 µM (inactive) | 20.4 µM (inactive) | 24.3 µM (inactive) | 23.8 µM (inactive) | 11.8 µM (inactive) | 24.4 µM (inactive) | 29.8 µM (inactive) | 42.2 µM (inactive) | 20.9 µM (inactive) | 17.8 µM (inactive) | 29.4 µM (inactive) | 19.3 µM (inactive) | 26.4 µM (inactive) | 23.2 µM (inactive) | 16.9 µM (inactive) | – | 16 µM (inactive) | – | 23.2 µM (inactive)
5 | COC(=O)CCCC(=O)NC1=C(Nc2ccc(OC)cc2)C(=O)c2ccccc2C1=O | 28 µM (inactive) | 43.2 µM (inactive) | 20.8 µM (inactive) | 25.4 µM (inactive) | – | 23.9 µM (inactive) | 17.1 µM (inactive) | 24.8 µM (inactive) | 17.8 µM (inactive) | 18.8 µM (inactive) | 26.4 µM (inactive) | 45.6 µM (inactive) | 30.4 µM (inactive) | 42.7 µM (inactive) | 31.4 µM (inactive) | 46.2 µM (inactive) | 30.1 µM (inactive) | 20.7 µM (inactive) | 33.1 µM (inactive) | –
6 | Cc1cn(C2CC(ON3C(=O)c4ccccc4C3=O)C(CO)O2)c(=O)[nH]c1=O (stereo not given) | > 10 µM (inactive) | – | > 10 µM (inactive) | – | > 10 µM (inactive) | > 10 µM (inactive) | > 10 µM (inactive) | > 10 µM (inactive) | > 10 µM (inactive) | > 10 µM (inactive) | – | > 10 µM (inactive) | > 10 µM (inactive) | > 10 µM (inactive) | > 10 µM (inactive) | > 10 µM (inactive) | – | – | > 10 µM (inactive) | > 10 µM (inactive)
7 | NC1=C(NC(=O)Cc2ccc(F)cc2)C(=O)c2ccccc2C1=O | 59 µM (inactive) | > 100 µM (inactive) | > 53.5 µM (inactive) | 68.2 µM (inactive) | > 100 µM (inactive) | 58.7 µM (inactive) | – | > 67.9 µM (inactive) | > 100 µM (inactive) | > 100 µM (inactive) | > 100 µM (inactive) | 39.7 µM (inactive) | 33.3 µM (inactive) | 23.1 µM (inactive) | 13.9 µM (inactive) | 58.1 µM (inactive) | – | – | > 76.4 µM (inactive) | –
8 | S=C(Nc1ccc(/N=N/c2ccccc2)cc1)SCc1ccccc1 | 17.5 µM (inactive) | 16.5 µM (inactive) | 15.9 µM (inactive) | 23.1 µM (inactive) | 23.6 µM (inactive) | 19.5 µM (inactive) | 23.3 µM (inactive) | 12.1 µM (inactive) | 16.1 µM (inactive) | – | 5.04 µM (inactive) | 17 µM (inactive) | 17.9 µM (inactive) | 18.5 µM (inactive) | 16.2 µM (inactive) | 18.8 µM (inactive) | 14.7 µM (inactive) | – | – | 15 µM (inactive)
9 | CSc1ccc(C2OC(=O)c3ccccc32)c2ccccc12 (stereo not given) | 88.5 µM (inactive) | 80.7 µM (inactive) | 54.8 µM (inactive) | > 100 µM (inactive) | 52.5 µM (inactive) | 31 µM (inactive) | – | 32.3 µM (inactive) | 70.5 µM (inactive) | > 100 µM (inactive) | 47.2 µM (inactive) | > 100 µM (inactive) | > 100 µM (inactive) | > 100 µM (inactive) | 37.3 µM (inactive) | 39.7 µM (inactive) | – | – | 97.1 µM (inactive) | –
10 | COc1ccc(NC(=O)Oc2cc(C)c3ccc(=O)cc-3o2)c(OC)c1.COc1ccc(NC(=O)Oc2ccc3c(C)cc(=O)oc3c2)c(OC)c1 | > 100 µM (inactive) | > 100 µM (inactive) | – | > 100 µM (inactive) | > 100 µM (inactive) | – | – | > 100 µM (inactive) | 69.8 µM (inactive) | > 100 µM (inactive) | > 100 µM (inactive) | > 100 µM (inactive) | > 100 µM (inactive) | > 100 µM (inactive) | > 100 µM (inactive) | > 100 µM (inactive) | > 100 µM (inactive) | > 100 µM (inactive) | – | > 100 µM (inactive)
11 | O=C1C2C=CC(C2)C(c2ccc(O)cc2)N1O (stereo not given) | > 100 µM (inactive) | > 100 µM (inactive) | > 100 µM (inactive) | > 100 µM (inactive) | > 100 µM (inactive) | > 100 µM (inactive) | – | > 100 µM (inactive) | > 100 µM (inactive) | > 100 µM (inactive) | > 100 µM (inactive) | > 100 µM (inactive) | > 100 µM (inactive) | > 100 µM (inactive) | > 100 µM (inactive) | > 100 µM (inactive) | – | – | > 100 µM (inactive) | –
12 | Cc1ccccc1-c1c(N)nc(N)nc1C(=O)Nc1nccs1 | > 100 µM (inactive) | > 100 µM (inactive) | > 100 µM (inactive) | > 100 µM (inactive) | > 100 µM (inactive) | > 100 µM (inactive) | – | > 100 µM (inactive) | > 100 µM (inactive) | > 100 µM (inactive) | > 100 µM (inactive) | > 100 µM (inactive) | > 100 µM (inactive) | > 100 µM (inactive) | > 100 µM (inactive) | > 100 µM (inactive) | – | – | > 100 µM (inactive) | –
13 | CN1C(=O)CC2CCC(=O)N2c2cccnc21 (stereo not given) | > 100 µM (inactive) | > 100 µM (inactive) | > 100 µM (inactive) | > 100 µM (inactive) | > 100 µM (inactive) | > 100 µM (inactive) | > 100 µM (inactive) | – | > 100 µM (inactive) | – | > 100 µM (inactive) | > 100 µM (inactive) | > 100 µM (inactive) | > 100 µM (inactive) | > 100 µM (inactive) | > 100 µM (inactive) | > 100 µM (inactive) | > 100 µM (inactive) | > 100 µM (inactive) | –
14 | COC(=O)C(C(=O)C(=O)Nc1cccc(C)c1)C1=NC(N)SS1 (stereo not given) | > 100 µM (inactive) | > 100 µM (inactive) | > 100 µM (inactive) | > 100 µM (inactive) | > 100 µM (inactive) | > 100 µM (inactive) | – | > 100 µM (inactive) | > 100 µM (inactive) | > 100 µM (inactive) | > 100 µM (inactive) | > 100 µM (inactive) | > 100 µM (inactive) | > 100 µM (inactive) | > 100 µM (inactive) | > 100 µM (inactive) | – | – | > 100 µM (inactive) | –
15 | CC(=O)C1C(=O)C(=O)N(c2cccc([N+](=O)[O-])c2)C1=O (stereo not given) | > 100 µM (inactive) | > 100 µM (inactive) | > 100 µM (inactive) | > 100 µM (inactive) | > 100 µM (inactive) | – | > 100 µM (inactive) | > 100 µM (inactive) | > 100 µM (inactive) | > 100 µM (inactive) | – | > 100 µM (inactive) | > 100 µM (inactive) | > 100 µM (inactive) | > 100 µM (inactive) | > 100 µM (inactive) | > 100 µM (inactive) | > 100 µM (inactive) | – | > 100 µM (inactive)
16 | CC(C)(C)OC(=O)Nc1nnc(S(N)(=O)=O)s1 | > 100 µM (inactive) | > 100 µM (inactive) | > 100 µM (inactive) | > 100 µM (inactive) | > 100 µM (inactive) | > 100 µM (inactive) | > 100 µM (inactive) | > 100 µM (inactive) | > 100 µM (inactive) | > 100 µM (inactive) | > 100 µM (inactive) | > 100 µM (inactive) | > 100 µM (inactive) | > 100 µM (inactive) | > 100 µM (inactive) | > 100 µM (inactive) | > 100 µM (inactive) | > 100 µM (inactive) | > 100 µM (inactive) | –
17 | CC12CCC(CC1)C(C)(C)O2 [EUCALYPTOL] | > 100 µM (inactive) | – | – | 18.6 µM (inactive) | 59.4 µM (inactive) | – | 0.644 µM (active) | 13.7 µM (inactive) | 61.1 µM (inactive) | 64.7 µM (inactive) | 23.4 µM (inactive) | 42 µM (inactive) | 21.5 µM (inactive) | – | 29.5 µM (inactive) | 27.7 µM (inactive) | – | – | > 100 µM (inactive) | –
